The nature of data set [1]: Oral pharmacokinetics in male Sprague Dawley rats. Format: in vivo. The conditions noted are these: rat, serum, 250 mg/kg; for Vd/F: read-out: Vss/F.
The test system of data set [2] is ovariectomized Sprague Dawley rats. The data set can be described thus: Ovariectomized (OVx) rats: trabecular microarchitecture of femur and uterine weight. Format: in vivo. The conditions noted are these: for BV/TV / Po (tot) (Total porosity percent) / SMI / Tb.No / Tb.Pf (Trabecular pattern factor) / Tb.Sp: femur epiphysis. As for the experimental part: The study was conducted in accordance with current legislation on animal experiments [Institutional Animal Ethical Committee (IAEC)] at C.D.R.I. […] Sprague Dawley rats weighing ˜180-200 gm were either bilaterally ovariectomized (OVx) or exposed to a sham surgical procedure. All rats were individually housed at 21° C., in 12-h light:12-h dark cycles. All rats had excess to normal chow diet and water ad libitum. After OVx, the rats were left for 12 weeks to develop osteopenia. After 12 weeks, extract treatment in the form of gavage (50.0 mg and 100 mg/kg body weight), and iPTH 30 μg·kg^−1 three times a week was given daily. Equal numbers of OVx and sham operated rats served as the control, and were given vehicle (20% ethanol). The rats were weighed each week. At the end of 12 weeks, urine was to be collected for biochemical assessment therefore the rats were caged individually in plastic cages fitted with steel mesh for a total period of 48 h preceding autopsy and had free access to normal chow diet and water for the first 24 h initially for of acclimatization and then during the next 24 h, animals received only water ad libitum. After twenty-four hours of fasting urine samples were collected in fresh containers, centrifuged at 2000 rpm at room temperature and stored at […] until analyzed. Rats were then euthanized. At autopsy, blood samples were collected by cardiac puncture in tubes. Uteri were carefully excised, gently blotted, weighed, and fixed for histology and histomorphometry. About 5 mm pieces from the middle segment of each uterus were dehydrated in ascending grades of ethanol, cleared in xylene, and embedded in paraffin wax using standard procedures. Photomicrographs of sections were obtained using a Leica DC 300 camera and Leica IM50 Image Acquisition software fitted to a Leica DMLB microscope. Histomorphometric measurements were done using Leica Qwin-Semiautomatic image Analysis software. μCT (both 2-D and 3-D) determination of excised bones was carried out using the Sky Scan 1076 μCT scanner (Aartselaar, Belgium) using the cone-beam reconstruction software version 2.6 based on the Feldkamp algorithm (Skyscan).
Trabecular response to FSE treatment of OVx rats was quantified at the femur epiphysis. […] Efficacy of OVx was confirmed by studying uterine weight. […] OVx group had reduced uterine weight as compared with the ovary intact, sham group. […] E2 increased uterine weight in OVx rats equal to the sham group.

Another data set concerns calvarial osteoblasts. The data set can be described thus: Mineralization (Alizarin Red-S) in calvarial osteoblasts. Type of data set: cell-based. To be noted: various concentration, 18 days, compared to untreated cells. How it is done:
FIG. 5A-5C: Activity of the compound C003/K008 isolated from the extract was assessed by measuring ALP activity in calvarial osteoblast cells. At the end of the experiment, ALP activity was measured colorimetrically. […] (*p<0.05, **p<0.01 and ***p<0.001 when compared with control). Calvarial osteoblasts were treated with compound C003/K008 at various concentration for 18 days to induce mineralization. […] Values are expressed as mean±SEM. ***p<0.001 and *p<0.05 when compared with control (untreated cells).
Compound (2492/K008) was isolated from butanolic fraction and alkaline phosphatase activity and mineralization in calvarial osteoblast cells assessed with different concentrations of the test compound or vehicle for 48 hrs in growth medium supplemented with 10 mM β-glycerophosphate and 50 μg/ml ascorbic acid. At the end of incubation period, cells were washed with PBS and kept in −80° C. for 30 min and then at 37° C. for 30 min. ALP activity was measured using p-nitrophenylphosphate (PNPP) as substrate and absorbance was read at 405 nm. SE increased the alkaline phosphatase activity from doses ranging from […] as compared to the control with ˜2.0 fold increase in the ALP activity at 1 μM.

Data set [3] concerns drill-hole injury in femur of adult female Sprague Dawley rats. In words: Drill hole model for fracture healing (micro-CT, calcein labeling, qPCR). Type of data set: in vivo. To be noted: 30 μg/kg s.c. injection. How it is done: Drill-hole injury was created in the mid femur region 1 cm above the knee joint by inserting a drill hole of diameter 0.8 mm in the anterior portion of the diaphysis of the bilateral femurs. Treatment was started next day of injury and continued for 14 days. Each animal received intraperitoneal administration of fluorochrome calcein(20 mg/kg) 24 h before autopsy. After 14 days of treatment, animals were sacrificed and autopsied to collect their femurs for the measurement of bone micro-architectural parameters. Bones were embedded inacrylic material and […] sections were made using an Isomet BoneCutter (Buehler, Lake Bluff, Ill., USA) and photographs taken under confocal microscope LSM 510 Meta, Carl Zeiss, Maple Grove, Minn., USA) aided with appropriate filters. The intensity of calcein binding, was calculated using Carl Zeiss AM 4.2 image-analysis software.
(A) In vivo regeneration of bone to monitor local repair process was done using micro-CT after creation of the hole using on femur of 0.8 mm diameter. […] Modest mineralized calluses appeared at defect and intra-medulla region of treated groups. By day 14, extent of callus mineralization increased, in the intra-medulla region.
The model was made as described above and then treatment of extract and Formulated Spinacea Extraxt (FSE) was started at doses of 250 and 750 mg·kg^−1·day^−1 from the next day of injury and continued for 14 days. After 14 days of treatment as described above, animals were sacrificed and autopsied to collect their femurs for the measurement of bonemicro architectural parameters at the drill-hole site. Bones were embedded inacrylic material and […] sections were made using an Isomet BoneCutter (Buehler, Lake Bluff, Ill., USA) and photographs taken under confocal microscope LSM 510 Meta, Carl Zeiss, Maple Grove, Minn., USA) aided with appropriate filters. The intensity of calcein binding, which is an indicator of the amount of new mineral deposition, was calculated using Carl Zeiss AM 4.2 image-analysis software. […]

Marks after values point to notes of the source that are not given here.

Turning to `COc1c(-c2ccc(O)c(O)c2)oc2cc3c(c(O)c2c1=O)OCO3` [Compound K007, 5,3′,4′-trihydroxy-3-methoxy-6,7-methylenedioxy-flavone], in data set [1], the AUC(0-t) was 39 ng·h/mL, the CL/F was 213 mL/min/kg, the peak concentration (Cmax) was 7.6 ng/mL and the mean residence time MRT was found to be 3.4 h. For the same compound, in data set [1], the Tmax turned out to be 2 h and the Vd/F turned out to be 43.3 L/kg.

Take `C[C@]12CC[C@@H]3c4ccc(O)cc4CC[C@H]3[C@@H]1CC[C@@H]2O` [Compound E2]: in data set [2] (Ovx + E2 (0.1 mgkg^−1day^−1)), the Uteriewt worked out at 329.63 ± 30.44 mg, the BV/TV is reported as 15.97 ± 1.88 %, the “Po (tot) (Total porosity percent)” value amounted to 85.24 ± 2.07% and the SMI was 1.67 ± 0.04. In data set [2] (Ovx + E2 (0.1 mgkg^−1day^−1)), the Tb.No was 1.61 ± 0.23** mm^−1, the “Tb.Pf (Trabecular pattern factor)” value was 6.22 ± 0.72 and the Tb.Sp was 0.76 ± 0.1 mm.

Turning to `COc1c(O)cc2oc(-c3ccc(O)c(O)c3)c(OC)c(=O)c2c1O` [Compound K008, 5,7,3′,4′-tetrahydroxy-3,6-dimethoxy-flavone], the “formation of mineralized nodules (Alizarin Red-S)” value in the data set with calvarial osteoblasts is “increased formation of mineralized nodules”. Also, in data set [1], the exposure AUC(0-t) was 23.3 ng·h/mL, the apparent clearance CL/F is 23.3 mL/min/kg, the Cmax turned out to be 5 ng/mL and the mean residence time MRT amounted to 3.9 h. In addition, in data set [1], the time to peak (Tmax) came to 2 h and the Vd/F was determined as 5.6 L/kg.

As to “PTH: parathyroid hormone, standard marketed anabolic drug, injectable”, in data set [3], the BV/TV is listed as 60.3 ± 1.91 %, the Calcein intensity is given as 15.3 ± .055 % and the “SMI (Index)” value is reported as 0.65 ± 0.07. In addition, in data set [2] (Ovx + PTH (30 μg/kg bw)), the Uteriewt came out at 91.18 ± 3.84 mg, the BV/TV was determined as 22.78 ± 1.76 %, the “Po (tot) (Total porosity percent)” value amounted to 76.79 ± 2.35 % and the SMI is on record as 1.26 ± 0.18. For the same compound, in data set [2] (Ovx + PTH (30 μg/kg bw)), the Tb.No is listed as 2.43 ± 0.19*** mm^−1, the “Tb.Pf (Trabecular pattern factor)” value is on record as 5.31 ± 0.68 and the Tb.Sp is 0.63 ± 0.07 mm.

The AUC(0-t) is exposure summed from dosing to a finite time, without extrapolation to infinity. By CL/F is commonly meant the apparent clearance, not corrected for the fraction that reaches the circulation. For orientation: Cmax means the highest concentration seen after dosing. One may read the MRT as the average time that molecules of a dose stay in the body. Usually Tmax stands for the time at which the peak concentration occurs.
